{"source": "patent US6518271B1", "about": "“1H-imidazo[4,5-d]pyridazin-7-one, and corresponding thiones as corticotropin releasing factor (CRF) receptor ligands” (Bristol-Myers Squibb Company, priority 1998, dated 2003)", "data": [{"molecule": "CCC(C)C(CC)C1=NC2=C(c3ccc(Cl)cc3Cl)N=NC(=O)C2=N1", "note": "(stereo not shown) [Example 1, 4-(2,4-dichlorophenyl)-2-ethyl-1-(1-ethyl)propyl-imidazo[4,5-d]pyridazin-7-one]", "values": [{"measurement": "melting point", "value": "246 to 247", "unit": "°C"}]}]}
